Assay results taken from the CheMixHub viscosity set.

Assay: xn = mol fraction of the nth substance listed

COC(C)=O + COCCO
viscosity [mPa·s], 101 kPa
Conditions	x2 = 0.0993	x2 = 0.2004	x2 = 0.2993	x2 = 0.4009	x2 = 0.4996	x2 = 0.6014	x2 = 0.7013	x2 = 0.8006	x2 = 0.9001
298.15 K	0.429	0.484	0.549	0.636	0.729	0.862	1.012	1.218	1.453
303.15 K	0.407	0.457	0.517	0.596	0.679	0.797	0.929	1.112	1.317
308.15 K	0.387	0.432	0.486	0.556	0.632	0.738	0.858	1.025	1.2

OC[C@H](O)C(O)[C@@H](O)CO + OC[C@@H](O)[C@H](O)[C@@H](O)CO
Conditions	viscosity [mPa·s]
313 K, 101 kPa, x2 = 0.56	42740

C1CCCCC1 + Cc1ccccc1
viscosity [mPa·s]
Conditions	101 kPa	101.33 kPa
293.95 K, x1 = 0.1	–	0.6126
294.15 K, x1 = 0.5	–	0.6762
294.25 K, x1 = 0.2	–	0.6123
294.45 K, x1 = 0.3	–	0.6228
294.75 K, x1 = 0.4	–	0.6357
294.75 K, x1 = 0.6	–	0.6922
296.15 K, x1 = 0.8	–	0.778
303 K, x2 = 0.04	0.7881	–
303 K, x2 = 0.081	0.7486	–
303 K, x2 = 0.162	0.6926	–
303 K, x2 = 0.324	0.6161	–
303 K, x2 = 0.484	0.5705	–
303 K, x2 = 0.644	0.5419	–
303 K, x2 = 0.803	0.5252	–
303 K, x2 = 0.882	0.5268	–
303 K, x2 = 0.96	0.5298	–
303.15 K, x1 = 0.0958	0.5395	–
303.15 K, x1 = 0.0999	0.5263	–
303.15 K, x1 = 0.2	0.5319	0.5546
303.15 K, x1 = 0.2959	0.5409	–
303.15 K, x1 = 0.4126	0.5566	–
303.15 K, x1 = 0.4964	0.5726	–
303.15 K, x1 = 0.6005	0.6005	–
303.15 K, x1 = 0.7032	0.6367	–
303.15 K, x1 = 0.7978	0.6827	–
303.15 K, x1 = 0.8946	0.7448	–
303.15 K, x2 = 0.0999	0.7364	–
303.15 K, x2 = 0.2003	0.6714	–
303.15 K, x2 = 0.3	0.6226	–
303.15 K, x2 = 0.3999	0.5886	–
303.15 K, x2 = 0.5	0.5635	–
303.15 K, x2 = 0.6	0.5481	–
303.15 K, x2 = 0.6999	0.5352	–
303.15 K, x2 = 0.7998	0.5283	–
303.15 K, x2 = 0.9	0.5256	–
303.45 K, x1 = 0.1	–	0.5477
303.45 K, x1 = 0.3	–	0.5618
303.45 K, x1 = 0.8	–	0.7003
303.75 K, x1 = 0.5	–	0.5991
303.95 K, x1 = 0.4	–	0.5688
304.25 K, x1 = 0.6	–	0.6143
308.15 K, x2 = 0.0999	0.6829	–
308.15 K, x2 = 0.2003	0.6256	–
308.15 K, x2 = 0.3	0.5822	–
308.15 K, x2 = 0.3999	0.5527	–
308.15 K, x2 = 0.5	0.5308	–
308.15 K, x2 = 0.6	0.5152	–
308.15 K, x2 = 0.6999	0.5054	–
308.15 K, x2 = 0.7998	0.4991	–
308.15 K, x2 = 0.9	0.497	–
312.45 K, x1 = 0.1	–	0.4994
312.45 K, x1 = 0.3	–	0.51
312.95 K, x1 = 0.8	–	0.6059
313.15 K, x1 = 0.2	–	0.4976
313.15 K, x1 = 0.4	–	0.5137
313.15 K, x1 = 0.4974	0.5095	–
313.15 K, x2 = 0.0999	0.6359	–
313.15 K, x2 = 0.2003	0.585	–
313.15 K, x2 = 0.3	0.5466	–
313.15 K, x2 = 0.3999	0.5206	–
313.15 K, x2 = 0.5	0.4996	–
313.15 K, x2 = 0.7998	0.4731	–
313.15 K, x2 = 0.9	0.4707	–
313.45 K, x1 = 0.5	–	0.5412
313.65 K, x1 = 0.6	–	0.5482
318.15 K, x2 = 0.0999	0.5914	–
318.15 K, x2 = 0.2003	0.548	–
318.15 K, x2 = 0.3	0.5136	–
318.15 K, x2 = 0.3999	0.4913	–
318.15 K, x2 = 0.5	0.4722	–
318.15 K, x2 = 0.6	0.4614	–
318.15 K, x2 = 0.6999	0.4531	–
318.15 K, x2 = 0.7998	0.449	–
318.15 K, x2 = 0.9	0.447	–
322.75 K, x1 = 0.8	–	0.5481
323.15 K, x1 = 0.5989	0.4735	–
323.15 K, x2 = 0.0999	0.5534	–
323.15 K, x2 = 0.2003	0.5139	–
323.15 K, x2 = 0.3	0.4839	–
323.15 K, x2 = 0.3999	0.4632	–
323.15 K, x2 = 0.5	0.4466	–
323.15 K, x2 = 0.6	0.4383	–
323.15 K, x2 = 0.6999	0.4304	–
323.15 K, x2 = 0.7998	0.4264	–
323.15 K, x2 = 0.9	0.4243	–

COC(C)=O + Cc1ccc(C)cc1
viscosity [mPa·s], 101 kPa
Conditions	298.15 K	308.15 K
x1 = 0.0478	0.592	0.521
x1 = 0.1516	0.548	0.49
x1 = 0.2496	0.514	0.465
x1 = 0.3526	0.483	0.442
x1 = 0.4453	0.46	0.423
x1 = 0.492	0.449	0.415
x1 = 0.5525	0.437	0.404
x1 = 0.6515	0.42	0.389
x1 = 0.7506	0.406	0.376
x1 = 0.8511	0.395	0.365
x1 = 0.9428	0.388	0.356
